Read-outs that look alike come from different tables or passages of the source.
Legend:
OPM2 xenograft [1] = details: for Median Days to Target Size / LCK / CR (complete tumor regressions) / PR (partial tumor regressions) / TGI: Study #1; for Median Days to Target Size: ELO 0.5 mg/kg IP 2QW from d16, POM 5 mg/kg PO QD × 5 d16, 23, DEX 5 mg/kg IP QD × 7 from d16, target size 1 gm; for LCK / CR (complete tumor regressions) / PR (partial tumor regressions) / TGI: ELO 0.5, POM 5, DEX 5 mg/kg; for CR (complete tumor regressions) / PR (partial tumor regressions): mice of 8; for TGI: versus untreated mice; for Max % Weight Loss: mouse, in vivo
Method: Mice with established OPM2 xenograft tumors were randomized into 2 groups with 8 mice per group and were administered one of the following sets of regimens: (A) Control group was left untreated (filled circles), elotuzumab (0.5 mg/kg, twice weekly IP for 7 doses starting d16, open circles), dexamethasone (5 mg/kg, daily IP for 7 doses starting on d16, open triangles), elotuzumab plus dexamethasone combination (filled triangles), pomalidomide (5 mg/kg, daily for 5 days orally starting on d16 and then again for 5 days on d23) plus dexamethasone combination (dashes); or (B) Control group was left untreated (filled circles), elotuzumab (0.5 mg/kg, twice weekly IP for 7 doses starting d16, open circles), pomalidomide (5 mg/kg, daily for 5 days orally starting on d16 and then again for 5 days on d23, open squares), elotuzumab (0.5 mg/kg, twice weekly IP for 10 doses starting d16) plus pomalidomide combination (filled squares), elotuzumab (10 doses) plus pomalidomide plus dexamethasone combination (x's). The data are presented as means+/−standard deviation.
(§1) Mice with established OPM2 xenograft tumors were randomized into groups with 8 mice per group and were administered one of the following regimens: (A): untreated (control); (B): elotuzumab; (C): pomalidomide; (D): dexamethasone; (E): elotuzumab plus pomalidomide; (F): elotuzumab plus dexamethasone; (G): pomalidomide plus dexamethasone; or (H): elotuzumab plus pomalidomide plus dexamethasone. Data represent tumor weight measured in individual animals. Dosing route and regimen are described in FIG. 2 and Example 1.
(§2) Animals: All mice were obtained from Taconic Biosciences (Germantown, N.Y.), and maintained in ammonia-free environment in a defined and pathogen-free colony. All animal procedures were approved by the Bristol-Myers Squibb (BMS) Institutional Animal Care and Use Committee. The animal care and use program at BMS has been fully accredited by the Association for Assessment and Accreditation of Laboratory Animal Care International (AAALAC).
(§3) Animal Models: The human tumor xenograft OPM2 was grown in IcrTac scid mice (ICRPrkdcscid). Treated animals were checked daily for treatment related toxicity/mortality. Each group of animals was weighed before the initiation of treatment (Wt1) and then weighed again following the last treatment dose (Wt2). The difference in body weight (Wt2-Wt1) provides a measure of treatment-related toxicity. Additional weights were recorded at each measurement date to monitor toxicity.
(§4) Tumor response was determined by measurement of tumors with a caliper twice a week, until the tumors reached a predetermined “target” size of 1 gm. Tumor weights (mg) were estimated from the formula: Tumor weight=(length×width2)/2.
(§5) Tumor response end-point was expressed in terms of tumor cell kill and tumor growth inhibition. Tumor growth delay was defined as the difference in time (days) required for the treated tumors (T) to reach a predetermined target size compared to those in the control group (C). For this purpose tumor weight of a group was expressed as […] tumor weight (MTW).
(§6) Tumor cell kill was expressed in terms of log cell kill (LCK), represented by the equation LCK=[…] where tumor volume doubling time (TVDT) was first calculated with the formula: TVDT=Median time (days) for control tumor weight to reach target size−Median time (days) for control tumor weight to reach half the target size.

OPM2 xenograft [2] = details: for Median Days to Target Size / LCK / CR (complete tumor regressions) / PR (partial tumor regressions) / TGI: Study #2; for Median Days to Target Size: ELO 0.5 mg/kg IP 2QW from d12, POM 5 mg/kg PO QD × 5 d12, 19, DEX 5 mg/kg IP QD × 7 from d12, target size 1 gm; for LCK / CR (complete tumor regressions) / PR (partial tumor regressions) / TGI: ELO 0.5, POM 5, DEX 5 mg/kg; for CR (complete tumor regressions) / PR (partial tumor regressions): mice of 8; for TGI: versus untreated mice
Method: FIGS. 4A-B. Study #2 (OPM2-16), Antitumor Activity, Elotuzumab Efficacy in Combination with Pomalidomide and Dexamethasone in OPM2 Multiple Myeloma Xenograft. Mice with established OPM2 xenograft tumors were randomized into 2 groups with 8 mice per group and were administered one of the following sets of regimens: (A) Control group was left untreated (filled circles), elotuzumab (0.5 mg/kg, twice weekly IP for 6 doses starting d12, open circles), dexamethasone (5 mg/kg, daily IP for 7 doses starting on d12, open triangles), elotuzumab (0.5 mg/kg, twice weekly IP for 8 doses starting d12) plus dexamethasone combination (filled triangles), pomalidomide (5 mg/kg, daily for 5 days orally starting on d12 and then again for 5 days on d19) plus dexamethasone combination (dashes); or (B) Control group was left untreated (filled circles), elotuzumab (0.5 mg/kg, twice weekly IP for 6 doses starting d12, open circles), pomalidomide (5 mg/kg, daily for 5 days orally starting on d12 and then again for 5 days on d19, open squares), elotuzumab (0.5 mg/kg, twice weekly IP for 8 doses starting d12) plus pomalidomide combination (filled squares), elotuzumab (0.5 mg/kg, twice weekly IP for 8 doses starting d12) plus pomalidomide plus dexamethasone combination (x's). The data are presented as means+/−standard deviation.
as §1, with “FIGS. 5A-H. Study #2 (OPM2-16), Anti Tumor Activity of Elotuzumab, Pomalidomide, and Dexamethasone as Single Agent and Combination Treatment in OPM2 Multiple Myeloma Xenograft tumor model. Mice” for “Mice”, “FIG. 4” for “FIG. 2”
as §2, §3, §4, §5, §6

OPM2 xenograft [3] = test: OPM2 xenograft studies taken together (summary and conclusion); format: in vivo, mice; details: elotuzumab 0.5 mg/kg, pomalidomide 5 mg/kg, dexamethasone 5 mg/kg
Method: The present invention is based on data from preclinical studies conducted in female SCID mice (6-8 weeks old) that were implanted SC (subcutaneous implantation) with the multiple myeloma cell line OPM-2 which were treated with Elotuzumab IP (intraperitoneal administration) alone, treated with pomalidomide alone, treated with dexamethasone alone, or treated in combination with each other. […] All treatments were well tolerated, with no significant changes in body weights or overt signs of clinical toxicity.
Dosing regimen for dexamethasone was QD×7.

[4] = tested on: relapsed and refractory multiple myeloma; details: MM-002, cited from earlier work
NK cells = details: independent of the Fc portion of the antibody; cited from earlier work
human myeloma xenografts = details: intraperitoneally (IP), dose-dependent; cited from earlier work

Compound	Median Days to Target Size (OPM2 xenograft [1]) [days]	LCK (OPM2 xenograft [1])	CR (complete tumor regressions) (OPM2 xenograft [1])	PR (partial tumor regressions) (OPM2 xenograft [1])	TGI (OPM2 xenograft [1]) [%]	Max % Weight Loss (OPM2 xenograft [1]) [%]	Median Days to Target Size (OPM2 xenograft [2]) [days]	LCK (OPM2 xenograft [2])	CR (complete tumor regressions) (OPM2 xenograft [2])	PR (partial tumor regressions) (OPM2 xenograft [2])	TGI (OPM2 xenograft [2]) [%]	efficacy / effect on tumor growth (in words) (OPM2 xenograft [3])	also measured
Nc1cccc2c1C(=O)N(C1CCC(=O)NC1=O)C2=O (racemic) [Pomalidomide, (RS)-4-amino-2-(2,6-dioxo-piperidin-3-yl)-isoindole-1,3-dione]	29.8	0.26	0/8	0/8	52	−1.1	22.5	0.33	0/8	0/8	41.4	inhibited tumor growth	Max % Weight Loss (OPM2 xenograft [2]; mouse, in vivo): −1.1%; Grade 3/4 anemia [4]: 24%; Grade 3/4 neutropenia [4]: 48%; Grade 3/4 thrombocytopenia [4]: 22%; ORR (≥PR) [4]: 18%; fatigue [4]: 11%; frequency of febrile neutropenia [4]: 5%; incidence of DVT [4]: 3%; median OS [4]: 13.6 months; median response duration [4]: 10.7 months; pneumonia [4]: 15%; median PFS ([4]; pomalidomide 4 mg/day d1-21 of 28, dexamethasone 40 mg/week, median follow-up 14.2 months): 2.7 months
Elotuzumab: humanized monoclonal IgG1 antibody directed against CS-1; VL SEQ ID NO:1, VH SEQ ID NO:2	35.0	0.61	0/8	0/8	70.3	−2.2	24.0	0.47	0/8	0/8	57.7	inhibited tumor growth	NK cell activation (NK cells): activate NK cells by up-regulation of CD69 and granzyme B expression; tumor growth (human myeloma xenografts): inhibits tumor growth of human myeloma xenografts

— patent publication US10925867B2, “Immunotherapeutic dosing regimens comprising pomalidomide and an anti-CS1 antibody for treating cancer” (Bristol-Myers Squibb Company, priority 2015, dated 2021)
